Data taken from patent publication US8304419B2, “Chemical compounds” (priority 2007, dated 2012).

Tested on: HIV wild type (WTRVA)
Assay: HeLa cell assay, wild type virus (WTRVA)
Format: cell-based, HIV-1
Design: scale not given here
Conditions: Human immunodeficiency virus 1, HeLa, HeLa-CD4-LTR-β-gal cells, wild type virus; read-out: WTRVA activity level

First: N#Cc1cc(Cl)cc(Oc2c(Cl)ccc(CNC(=O)c3cc4ccc([N+](=O)[O-])cc4[nH]3)c2F)c1 [Example 31, N-({4-chloro-3-[(3-chloro-5-cyanophenyl)oxy]-2-fluorophenyl}methyl)-6-nitro-1H-indole-2-carboxamide]
Second: CC(=O)Nc1ccc2[nH]c(C(=O)NCc3ccc(Cl)c(Oc4cc(Cl)cc(C#N)c4)c3F)cc2c1 [Example 121, 5-(acetylamino)-N-({4-chloro-3-[(3-chloro-5-cyanophenyl)oxy]-2-fluorophenyl}methyl)-1H-indole-2-carboxamide]
The IC50 of the first is higher: 10 to 1000 nM for the first, < 10 nM for the second. The second is the more potent here.

N#Cc1cc(Cl)cc(Oc2c(Cl)ccc(CNC(=O)c3ccc[nH]3)c2F)c1 [Example 57, N-({4-chloro-3-[(3-chloro-5-cyanophenyl)oxy]-2-fluorophenyl}methyl)-1H-pyrrole-2-carboxamide] and CNCC(=O)Nc1ccc2[nH]c(C(=O)NCc3ccc(Cl)c(Oc4cc(Cl)cc(C#N)c4)c3F)cc2c1 [Example 119] cannot be ordered by IC50: < 10 nM for the first, < 10 nM for the second.
